Test results reported in patent publication US7183415B2, “Quinoline compound” (Takeda Pharmaceutical Company Limited, priority 2001, dated 2007).

| melting point [°C] | SMILES |
| --- | --- |
| 198 to 200 | O=C(Nc1cc2ncc(CN3CCCC3)cc2cc1F)c1ccc(-c2ccc(F)cc2)cc1 [Example 50, 4′-fluoro-N-[6-fluoro-3-(1-pyrrolidinylmethyl)-7-quinolinyl][1,1′-biphenyl]-4-carboxamide] |
| 218 to 220 | O=C(Nc1cc2ncc(CN3CCCC3)cc2cc1F)c1ccc(-c2ccc(Cl)cc2)cc1 [Example 51, 4′-chloro-N-[6-fluoro-3-(1-pyrrolidinylmethyl)-7-quinolinyl][1,1′-biphenyl]-4-carboxamide] |
| 206 to 208 | O=C(Nc1cc2ncc(CN3CCCC3)cc2cc1F)c1ccc(-c2ccccc2)cc1 [Example 52, N-[6-fluoro-3-(1-pyrrolidinylmethyl)-7-quinolinyl][1,1′-biphenyl]-4-carboxamide] |
| 184 to 186 | COc1ccc(-c2ccc(C(=O)Nc3cc4ncc(CN5CCCC5)cc4cc3F)cc2)cc1 [Example 53, N-[6-fluoro-3-(1-pyrrolidinylmethyl)-7-quinolinyl]-4′-methoxy[1,1′-biphenyl]-4-carboxamide] |
| 202 to 204 | Cc1ccc(-c2ccc(C(=O)Nc3cc4ncc(CN5CCCC5)cc4cc3F)cc2)cc1 [Example 54, N-[6-fluoro-3-(1-pyrrolidinylmethyl)-7-quinolinyl]-4′-methyl[1,1′-biphenyl]-4-carboxamide] |
| 209 to 212 | O=C(Nc1cc2ncc(CN3CCCC3)cc2cc1F)c1ccc(-c2ccc(C(F)(F)F)cc2)cc1 [Example 55, N-[6-fluoro-3-(1-pyrrolidinylmethyl)-7-quinolinyl]-4′-(trifluoromethyl)[1,1′-biphenyl]-4-carboxamide] |
| 184 to 187 | O=C(Nc1cc2ncc(CN3CCCC3)cc2cc1F)c1ccc(-c2ccc(OC(F)(F)F)cc2)cc1 [Example 56, N-[6-fluoro-3-(1-pyrrolidinylmethyl)-7-quinolinyl]-4′-(trifluoromethoxy)[1,1′-biphenyl]-4-carboxamide] |
| 163 to 164 | O=C(Nc1cc2ncc(CN3CCCC3)cc2cc1F)c1ccc(-c2ccccc2)cc1F [Example 58, 3-fluoro-N-[6-fluoro-3-(1-pyrrolidinylmethyl)-7-quinolinyl][1,1′-biphenyl]-4-carboxamide] |
| 174 to 176 | COc1ccc(-c2ccc(C(=O)Nc3cc4ncc(CN5CCCC5)cc4cc3F)c(F)c2)cc1 [Example 59, 3-fluoro-N-[6-fluoro-3-(1-pyrrolidinylmethyl)-7-quinolinyl]-4′-methoxy[1,1′-biphenyl]-4-carboxamide] |
| 200 to 202 | O=C(Nc1cc2ncc(CN3CCCC3)cc2cc1F)c1ccc(-c2ccc(F)cc2)cc1F [Example 60, 3,4′-difluoro-N-[6-fluoro-3-(1-pyrrolidinylmethyl)-7-quinolinyl][1,1′-biphenyl]-4-carboxamide] |
| 179 to 181 | Cc1ccc(-c2ccc(C(=O)Nc3cc4ncc(CN5CCCC5)cc4cc3F)c(F)c2)cc1 [Example 61, 3-fluoro-N-[6-fluoro-3-(1-pyrrolidinylmethyl)-7-quinolinyl]-4′-methyl[1,1′-biphenyl]-4-carboxamide] |
| 217 to 219 | O=C(Nc1cc2ncc(CN3CCCC3)cc2cc1F)c1ccc(-c2ccc(Cl)cc2)cc1F [Example 62, 4′-chloro-3-fluoro-N-[6-fluoro-3-(1-pyrrolidinylmethyl)-7-quinolinyl][1,1′-biphenyl]-4-carboxamide] |
| 182 to 184 | O=C(Nc1cc2ncc(CN3CCCC3)cc2cc1N1CCCC1)c1ccc(-c2ccc(F)cc2)cc1 [Example 64, 4′-fluoro-N-[6-(1-pyrrolidinyl)-3-(1-pyrrolidinylmethyl)-7-quinolinyl][1,1′-biphenyl]-4-carboxamide] |
| 184 | COc1ccc(-c2ccc(C(=O)Nc3cc4ncc(CN5CCCC5)cc4cc3Cl)cc2)cc1 [Example 67, N-[6-chloro-3-(1-pyrrolidinylmethyl)-7-quinolinyl]-4′-methoxy-[1,1′-biphenyl]-4-carboxamide] |
| 185 | O=C(Nc1cc2ncc(CN3CCCC3)cc2cc1Cl)c1ccc(-c2ccc(Cl)s2)cc1 [Example 69, N-[6-chloro-3-(1-pyrrolidinylmethyl)-7-quinolinyl]-4-(5-chlorothien-2-yl)benzamide] |
| 178 | O=C(Nc1ccc2cc(CN3CCCC3)cnc2c1F)c1ccc(-c2ccc(F)cc2)cc1 [Example 73, 4′-fluoro-N-[8-fluoro-3-(1-pyrrolidinylmethyl)-7-quinolinyl][1,1′-biphenyl]-4-carboxamide] |
| 210 to 213 | Cc1ccc(-c2ccc(C(=O)Nc3ccc4cc(CN5CCCC5)cnc4c3F)cc2)cc1 [Example 74, N-[8-fluoro-3-(1-pyrrolidinylmethyl)-7-quinolinyl]-4′-methyl[1,1′-biphenyl]-4-carboxamide] |
| 206 to 208 | O=C(Nc1ccc2cc(CN3CCCC3)cnc2c1F)c1ccc(-c2ccc(Cl)cc2)cc1 [Example 75, 4′-chloro-N-[8-fluoro-3-(1-pyrrolidinylmethyl)-7-quinolinyl][1,1′-biphenyl]-4-carboxamide] |
| 142 to 144 | COc1c(NC(=O)c2ccc(-c3ccc(F)cc3)cc2)ccc2cc(CN3CCCC3)cnc12 [Example 81, 4′-fluoro-N-[8-methoxy-3-(1-pyrrolidinylmethyl)-7-quinolinyl][1,1′-biphenyl]-4-carboxamide] |
| 266 to 267 | CCc1c(NC(=O)c2ccc(-c3ccc(F)cc3)cc2)ccc2cc(CN3CCCC3)cnc12 [Example 83, N-[8-ethyl-3-(1-pyrrolidinylmethyl)-7-quinolinyl]-4′-fluoro[1,1′-biphenyl]-4-carboxamide] |
| 232 | O=C(Nc1ccc2cc(CN3CCCC3)cnc2c1)c1ccc(-c2ccc(Cl)cc2)cc1F [Example 85, 4′-chloro-3-fluoro-N-[3-(1-pyrrolidinylmethyl)-7-quinolinyl][1,1′-biphenyl]-4-carboxamide] |

The remaining lines, values behind:

| SMILES | melting point [°C] |
| --- | --- |
| CCNC(=O)CCCC1CCN(Cc2cnc3cc(NC(=O)c4ccc(-c5ccc(F)cc5)cc4)ccc3c2)CC1 [Example 47, N-[3-({4-[4-(ethylamino)-4-oxobutyl]-1-piperidinyl}methyl)-7-quinolinyl]-4′-fluoro[1,1′-biphenyl]-4-carboxamide] | 209 to 213 |
| CCNC(=O)COC1CCN(Cc2cnc3cc(NC(=O)c4ccc(-c5ccc(F)cc5)cc4)ccc3c2)CC1 [Example 48, N-[3-({4-[2-(ethylamino)-2-oxoethoxy]-1-piperidinyl}methyl)-7-quinolinyl]-4′-fluoro[1,1′-biphenyl]-4-carboxamide] | 228 to 230 |
| O=C(Nc1cc2ncc(CN3CCCC3)cc2cc1N1CCCC1)c1ccc(Br)cc1 [Example 63, 4-bromo-N-[6-(1-pyrrolidinyl)-3-(1-pyrrolidinylmethyl)-7-quinolinyl]benzamide] | 171 to 173 |
| O=C(Nc1cc2ncc(CN3CCCC3)cc2cc1Cl)c1ccc(-c2cc3ccccc3o2)cc1 [Example 68, 4-(1-benzofuran-2-yl)-N-[6-chloro-3-(1-pyrrolidinylmethyl)-7-quinolinyl]benzamide] | 209 |
| O=C(Nc1ccc2cc(CN3CCCC3)cnc2c1F)c1ccc(-c2ccccc2)cc1 [Example 71, N-[8-fluoro-3-(1-pyrrolidinylmethyl)-7-quinolinyl][1,1′-biphenyl]-4-carboxamide] | 186 to 188 |
| COc1ccc(-c2ccc(C(=O)Nc3ccc4cc(CN5CCCC5)cnc4c3F)cc2)cc1 [Example 72, N-[8-fluoro-3-(1-pyrrolidinylmethyl)-7-quinolinyl]-4′-methoxy[1,1′-biphenyl]-4-carboxamide] | 217 to 220 |
| O=C(Nc1ccc2cc(CN3CCCC3)cnc2c1F)c1ccc(-c2ccccc2)cc1F [Example 77, 3-fluoro-N-[8-fluoro-3-(1-pyrrolidinylmethyl)-7-quinolinyl][1,1′-biphenyl]-4-carboxamide] | 136 to 137 |
| COc1ccc(-c2ccc(C(=O)Nc3ccc4cc(CN5CCCC5)cnc4c3F)c(F)c2)cc1 [Example 79, 3-fluoro-N-[8-fluoro-3-(1-pyrrolidinylmethyl)-7-quinolinyl]-4′-methoxy[1,1′-biphenyl]-4-carboxamide] | 182 to 183 |
| O=C(Nc1ccc2cc(CN3CCCC3)cnc2c1)c1ccc(-c2ccc(F)cc2)cc1F [Example 86] | 177 |
| COc1ccc(-c2ccc(C(=O)Nc3ccc4cc(CN5CCCC5)cnc4c3)c(F)c2)cc1 [Example 87, 3-fluoro-4′-methoxy-N-[3-(1-pyrrolidinylmethyl)-7-quinolinyl][1,1′-biphenyl]-4-carboxamide] | 174 |
| O=C(Nc1ccc2cc(CN3CCCC3)cnc2c1)c1ccc(-c2ccccc2)cc1F [Example 88, 3-fluoro-N-[3-(1-pyrrolidinylmethyl)-7-quinolinyl][1,1′-biphenyl]-4-carboxamide] | 166 |
| O=C(Nc1ccc2cc(CN3CCC(CCO)CC3)cnc2c1)c1ccc(-c2ccc(Cl)cc2)cc1 [Example 89, 4′-chloro-N-(3-{[4-(2-hydroxyethyl)-1-piperidinyl]methyl}-7-quinolinyl)-[1,1′-biphenyl]-4-carboxamide] | 204 |
| NC(=O)C1CCN(Cc2cnc3cc(NC(=O)c4ccc(-c5ccc(Cl)cc5)cc4)ccc3c2)CC1 [Example 90, 1-[(7-{[(4′-chloro-1,1′-biphenyl-4-yl)carbonyl]amino}-3-quinolinyl)methyl]piperidine-4-carboxamide] | 260 |
| CCNC(=O)CC1CCN(Cc2cnc3cc(NC(=O)c4ccc(-c5ccc(Cl)cc5)cc4)ccc3c2)CC1 [Example 91, 4′-chloro-N-[3-({4-[2-(ethylamino)-2-oxoethyl]-1-piperidinyl}methyl)-7-quinolinyl][1,1′-biphenyl]-4-carboxamide] | 250 |
| CC(=O)NC1CCN(Cc2cnc3cc(NC(=O)c4ccc(-c5ccc(Cl)cc5)cc4)ccc3c2)C1 (stereo not shown) [Example 92, N-(3-{[3-(acetylamino)-1-pyrrolidinyl]methyl}-7-quinolinyl)-4′-chloro-[1,1′-biphenyl]-4-carboxamide] | > 285 |
| Cc1ccc(-c2ccc(C(=O)Nc3ccc4cc(CN5CCCC5)cnc4c3C)cn2)cc1 [Example 94, 6-(4-methylphenyl)-N-[8-methyl-3-(1-pyrrolidinylmethyl)-7-quinolinyl]nicotinamide] | 178 to 180 |
